Test results published in US5294605A, “Amphiphilic peptide compositions and analogues thereof” (The Scripps Research Institute, priority 1991, dated 1994).
Like-named read-outs stand apart in the source and are kept apart here. Square brackets hold non-standard residues; d marks the D form. Ends that are not written are not given here. Met(O) = CS(=O)CC[C@H](N)C(=O)O

Experiments:
Type in all cases: cell-based
Pseudomonas aeruginosa [1] = experiment: Antimicrobial assay for deletion analogues (Example 10), MIC; details: Table VII; 3.5×10^5 CFU/ml, 20 hours, LB medium
Experimental: (§1) For the deletion analogues of the parent peptide further described in Examples 11 and 12, antimicrobial assays were carried out in 96-well tissue culture plates. Each well was incubated with a given microorganism (Escherichia coli, Staphylococcus epidermidis, Pseudomonas aeruginosa, or Staphylococcus aureus) suspended in LB medium. Upon addition of the parent peptide or its deletion analogues (dissolved in 1×PBS<pH7.0), each well contained a final cell density of 1.3×10^5 colony forming units (CFU)/ml of E. coli, or 3.5×10^5 CFU/ml P.aeruginosa, or 3.9×10^5 CFU/ml S. Aureus or 3.0×10^5 CFU/ml S. epidermidis. The final peptide concentrations ranged from 1.5 μg/ml to greater than 100 μg/ml. Addition of peptide to the wells was defined as time zero. At twenty hours, the plates were placed in a Titertek Multiskan apparatus and the O.D. 620 determined. The plates as well as the initial innoculum were incubated at 37° C. Five wells per plate contained medium alone, whereas five others contained medium plus cells. These controls were used to eliminate the possibility of medium contamination, while providing a measure of uninhibited growth of the microorganisms. The degree of peptide activity was determined by comparing the deletion analogues with uninhibited growth of the control cells over a twenty-hour period. The effective growth inhibitation of the deletion analogues is listed in the examples and tables below.

[2] = system: Staphylococcus epidermidis; experiment: as above; details: Table VII; 3.0×10^5 CFU/ml, 20 hours, LB medium
Experimental: as §1

Escherichia coli [3] = experiment: as above; details: Table VII; 1.3×10^5 CFU/ml, 20 hours, LB medium
Experimental: as §1

Staphylococcus aureus = experiment: as above; details: Table VII; 3.9×10^5 CFU/ml, 20 hours, LB medium
Experimental: as §1

Pseudomonas aeruginosa [4] = details: for Min. Inhibitory Concentration P. Aeruginosa: 20 hours, LB medium
Experimental: (§2) For the following Examples 3-9, antimicrobial assays were carried out in 96-well tissue culture plates. Each well was incubated with a given microorganism (Escherichia coli, Staphylococcus epidermidis, or Pseudomonas aeruginosa) suspended in LB medium. Upon the addition of the parent peptide having the structural formula hereinabove described, or its substitution analogues, or of Peptide I (dissolved in 1 X PBS, pH 7.0) each well contained a final cell density of 1.0×10^6 colony forming units (CFU)/ml. The final peptide concentrations ranged from 1.5 μg/ml to greater than 100 μg/ml.
(§3) Addition of peptides to the wells was defined as time zero. At twenty hours, the plates were placed in a Titertek Multiskan apparatus and the O.D.620 determined. The plates as well as the initial innoculum were incubated at 37° C.
(§4) Five wells per plate contained media alone, while five others contained medium plus cells. These controls were used to eliminate the possibility of media contamination while providing a measure of uninhibited growth of the microorganisms.
(§5) The degree of peptide activity was determined by comparing the substitution analogues with uninhibited growth of the control cells over a twenty-hour period.
(§6) as hereinabove described and analogues thereof wherein a methionine sulfoxide residue was substituted for various amino acid residues of the parent peptide were prepared as hereinabove described in Example 1 and tested for minimum inhibitory concentration with respect to E. coli, P. aeruginosa, and S. epidermidis at a concentration given in μg/ml, and for percent hemolysis of human red blood cells as hereinabove described in Example 2. The minimum inhibitory concentration and percent hemolysis (at a concentration of 100 μg/ml) are listed below in Table I. As used herein, the heading "Amino Acid Residue Substituted" refers to the number of the amino acid residue in the peptide which is substituted with a desired amino acid residue. All other residues remain the same as that of the normal peptide sequence. The term "Minimum Inhibitory Concentration" (MIC) as used herein indicates the minimum concentration of peptide in μg/ml needed to achieve 100 percent effective growth inhibition of the organism.

Escherichia coli [5] = details: for Min. Inhibitory Concentration E. Coli: 20 hours, LB medium
Experimental: as §2, §3, §4, §5, §6

[6] = system: Staphylococcus epidermidis; experiment: Antimicrobial assay in 96-well plates, LB medium (Example 2), MIC; details: 20 hours; for Min. Inhibitory Concentration S. epidemidia: Table VI, methionine sulfoxide diastereomer fractions
[7] = Table VI, methionine sulfoxide diastereomer fractions

Ac-LKLLKKLKKLKKLLKKL-NH2 [7 (X(SEQ ID NO: 50) --NH2)]
Minimum Inhibitory Concentration P. Aeruginosa (Pseudomonas aeruginosa [1]): 4 to 8 µg/mL | Minimum Inhibitory Concentration S. epidermidis [2]: 2 µg/mL | Minimum Inhibitory Concentration E. coli (Escherichia coli [3]): 4 µg/mL | Minimum Inhibitory Concentration S. aureus (Staphylococcus aureus): 64 µg/mL

7 (SEQ ID NO: 11) 20/80: residue 7 methionine sulfoxide analogue, fraction by proportion of L-methionine-L-/D-sulfoxide (assignment undetermined) (LKLLKK[Met(O)]LKKLKKLLKKL; also: sulfoxide L-/D- 20/80 mixture, assignment undetermined)
Min. Inhibitory Concentration P. Aeruginosa (Pseudomonas aeruginosa [4]; [7]): > 5 µg/mL | Min. Inhibitory Concentration E. Coli (Escherichia coli [5]; [7]): 5 µg/mL | Min. Inhibitory Concentration S. epidemidia [6]: > 10 µg/mL

11 (SEQ ID NO: 15) 70/30: residue 11 methionine sulfoxide analogue, fraction by proportion of L-methionine-L-/D-sulfoxide (assignment undetermined) (LKLLKKLLKK[Met(O)]KKLLKKL; also: sulfoxide L-/D- 70/30 mixture, assignment undetermined)
Min. Inhibitory Concentration P. Aeruginosa (Pseudomonas aeruginosa [4]; [7]): 2.5 µg/mL | Min. Inhibitory Concentration E. Coli (Escherichia coli [5]; [7]): 10 µg/mL | Min. Inhibitory Concentration S. epidemidia [6]: 2 µg/mL

Ac-LKLKKLLKKLKKLLKKL-NH2 [3 (X(SEQ ID NO: 48) --NH2)]
Minimum Inhibitory Concentration P. Aeruginosa (Pseudomonas aeruginosa [1]): 8 µg/mL | Minimum Inhibitory Concentration S. epidermidis [2]: 4 µg/mL | Minimum Inhibitory Concentration E. coli (Escherichia coli [3]): 4 µg/mL | Minimum Inhibitory Concentration S. aureus (Staphylococcus aureus): 32 to 64 µg/mL

4 (SEQ ID NO: 8) 60/40: residue 4 methionine sulfoxide analogue, fraction by proportion of L-methionine-L-/D-sulfoxide (assignment undetermined) (LKL[Met(O)]KKLLKKLKKLLKKL; also: sulfoxide L-/D- 60/40 mixture, assignment undetermined)
Min. Inhibitory Concentration P. Aeruginosa (Pseudomonas aeruginosa [4]; [7]): 5 µg/mL | Min. Inhibitory Concentration E. Coli (Escherichia coli [5]; [7]): > 10 µg/mL | Min. Inhibitory Concentration S. epidemidia [6]: 5 µg/mL

Ac-LKLLKKLLKKLKKLLKK-NH2 [18 (X(SEQ ID NO: 56) --NH2)]
Minimum Inhibitory Concentration P. Aeruginosa (Pseudomonas aeruginosa [1]): 8 µg/mL | Minimum Inhibitory Concentration S. epidermidis [2]: 2 µg/mL | Minimum Inhibitory Concentration E. coli (Escherichia coli [3]): 16 µg/mL | Minimum Inhibitory Concentration S. aureus (Staphylococcus aureus): 32 µg/mL

Ac-KKLLKKLLKKLKKLLKKL-NH2 [1 (SEQ ID NO: 23)]
Min. Inhibitory Concentration P. Aeruginosa (Pseudomonas aeruginosa [4]; Table II, lysine substitutions): 30 µg/mL | Min. Inhibitory Concentration E. Coli (Escherichia coli [5]; Table II, lysine substitutions): 5 µg/mL | Min. Inhibitory Concentration S. epidermidis ([6]; Table II, lysine substitutions): 25 µg/mL

Ac-LKLLKKLLKKLKKLKKL-NH2 [14 (X(SEQ ID NO: 54) --NH2)]
Minimum Inhibitory Concentration P. Aeruginosa (Pseudomonas aeruginosa [1]): 8 µg/mL | Minimum Inhibitory Concentration S. epidermidis [2]: 2 µg/mL | Minimum Inhibitory Concentration E. coli (Escherichia coli [3]): 8 µg/mL | Minimum Inhibitory Concentration S. aureus (Staphylococcus aureus): 32 µg/mL

7 (SEQ ID NO: 11) 70/30: residue 7 methionine sulfoxide analogue, fraction by proportion of L-methionine-L-/D-sulfoxide (assignment undetermined) (LKLLKK[Met(O)]LKKLKKLLKKL; also: sulfoxide L-/D- 70/30 mixture, assignment undetermined)
Min. Inhibitory Concentration P. Aeruginosa (Pseudomonas aeruginosa [4]; [7]): > 5 µg/mL | Min. Inhibitory Concentration E. Coli (Escherichia coli [5]; [7]): 10 µg/mL | Min. Inhibitory Concentration S. epidemidia [6]: > 10 µg/mL

Ac-LLKLLKKLLKKLKK [Peptide I]
Minimum Inhibitory Concentration against P.aeruginosa (Pseudomonas aeruginosa [4]; 20 h): 5 µg/mL | Minimum Inhibitory Concentration against E.coli (Escherichia coli [5]; 20 h): 10 µg/mL

4 (SEQ ID NO: 8) 50/50: residue 4 methionine sulfoxide analogue, fraction by proportion of L-methionine-L-/D-sulfoxide (assignment undetermined) (LKL[Met(O)]KKLLKKLKKLLKKL; also: sulfoxide L-/D- 50/50 mixture, assignment undetermined)
Min. Inhibitory Concentration P. Aeruginosa (Pseudomonas aeruginosa [4]; [7]): 5 µg/mL | Min. Inhibitory Concentration E. Coli (Escherichia coli [5]; [7]): 10 µg/mL | Min. Inhibitory Concentration S. epidemidia [6]: 5 µg/mL
